Results as given in patent US8129427B2, “2-phenylethylamino derivatives as calcium and/or sodium channel modulators” (Newron Pharmaceuticals S.p.A., priority 2005, dated 2012).

How the values were obtained:
[1] = test system: amphetamine-chlordiazepoxide induced increase in locomotor activity in mice; experiment: Amphetamine and chlordiazepoxide-induced hyperlocomotion in mice; format: in vivo, mouse; conditions: test compound 5 mg/kg given twice, FIG. 1
Method: In this model, mice are treated with a mixture of d-amphetamine plus an anxiolytic dose of the benzodiazepine, chlordiazepoxide (Rushton R, Steinberg H. Combined effects of chlordiazepoxide and d-amphetamine on activity of rats in an unfamiliar environment. Nature 1966; 211:1312-3; R. Arban, G. Maraia, K. Brackenborough, L. Winyard, A. Wilson, P. Gerrard, C. Large. Evaluation of the effects of lamotrigine, valproate and carbamazepine in a rodent model of mania Behavioural Brain Research, 158: 123-132). The model has been claimed to mimic some aspects of mania in bipolar disorder. Importantly, the hyperactivity induced by the mixture of d-amphetamine and chlordiazepoxide could be prevented by prior administration of the established mood stabilizer, lithium, as well as other mood stabilizers drugs (e.g. magnesium valproate and carbamazepine). […]
Amphetamine (AMP) (2.5 mg/kg) plus chlordiazepoxide hydrochloride (CDZ) (3 mg/kg/ip) were administered to male Albino Swiss mice (25-32 g) in a volume of 10 ml/kg. The locomotor activity was recorded using Opto-M3 System (Columbus Instruments) which is multi-channel activity monitor. […] The locomotor activity (ambulation and total activity count) was evaluated for 30 min. […]
Statistical analysis: the data were evaluated by an analysis of variance (ANOVA), followed, when appropriate, by individual comparison with the control using Dunnett's test. […]

[2] = test system: PCP induced deficits in the 5-CSRT task in DBA/2N mice; experiment: Cognitive impairment in schizophrenia: PCP-induced deficits in five-choice serial reaction time task; format: in vivo, mouse
N-type calcium channels = N-type calcium channels (Homo sapiens, UniProt Q00975); experiment: N-type calcium channel influx assay (fluorescence); format: cell-based; conditions: differentiated IMR32 cells, nifedipine 1 μM, 100 mM KCl depolarization; read-out: IC50
L-type calcium channels = format: cell-based, mouse; conditions: AtT20/D16v-F2 cells, ω-conotoxin 1 μM, 100 mM KCl depolarization
[3] = 10 mg/Kg i.p. + PCP (1.5 mg/kg)

Chain of N-type calcium channels (Q00975 whole entry): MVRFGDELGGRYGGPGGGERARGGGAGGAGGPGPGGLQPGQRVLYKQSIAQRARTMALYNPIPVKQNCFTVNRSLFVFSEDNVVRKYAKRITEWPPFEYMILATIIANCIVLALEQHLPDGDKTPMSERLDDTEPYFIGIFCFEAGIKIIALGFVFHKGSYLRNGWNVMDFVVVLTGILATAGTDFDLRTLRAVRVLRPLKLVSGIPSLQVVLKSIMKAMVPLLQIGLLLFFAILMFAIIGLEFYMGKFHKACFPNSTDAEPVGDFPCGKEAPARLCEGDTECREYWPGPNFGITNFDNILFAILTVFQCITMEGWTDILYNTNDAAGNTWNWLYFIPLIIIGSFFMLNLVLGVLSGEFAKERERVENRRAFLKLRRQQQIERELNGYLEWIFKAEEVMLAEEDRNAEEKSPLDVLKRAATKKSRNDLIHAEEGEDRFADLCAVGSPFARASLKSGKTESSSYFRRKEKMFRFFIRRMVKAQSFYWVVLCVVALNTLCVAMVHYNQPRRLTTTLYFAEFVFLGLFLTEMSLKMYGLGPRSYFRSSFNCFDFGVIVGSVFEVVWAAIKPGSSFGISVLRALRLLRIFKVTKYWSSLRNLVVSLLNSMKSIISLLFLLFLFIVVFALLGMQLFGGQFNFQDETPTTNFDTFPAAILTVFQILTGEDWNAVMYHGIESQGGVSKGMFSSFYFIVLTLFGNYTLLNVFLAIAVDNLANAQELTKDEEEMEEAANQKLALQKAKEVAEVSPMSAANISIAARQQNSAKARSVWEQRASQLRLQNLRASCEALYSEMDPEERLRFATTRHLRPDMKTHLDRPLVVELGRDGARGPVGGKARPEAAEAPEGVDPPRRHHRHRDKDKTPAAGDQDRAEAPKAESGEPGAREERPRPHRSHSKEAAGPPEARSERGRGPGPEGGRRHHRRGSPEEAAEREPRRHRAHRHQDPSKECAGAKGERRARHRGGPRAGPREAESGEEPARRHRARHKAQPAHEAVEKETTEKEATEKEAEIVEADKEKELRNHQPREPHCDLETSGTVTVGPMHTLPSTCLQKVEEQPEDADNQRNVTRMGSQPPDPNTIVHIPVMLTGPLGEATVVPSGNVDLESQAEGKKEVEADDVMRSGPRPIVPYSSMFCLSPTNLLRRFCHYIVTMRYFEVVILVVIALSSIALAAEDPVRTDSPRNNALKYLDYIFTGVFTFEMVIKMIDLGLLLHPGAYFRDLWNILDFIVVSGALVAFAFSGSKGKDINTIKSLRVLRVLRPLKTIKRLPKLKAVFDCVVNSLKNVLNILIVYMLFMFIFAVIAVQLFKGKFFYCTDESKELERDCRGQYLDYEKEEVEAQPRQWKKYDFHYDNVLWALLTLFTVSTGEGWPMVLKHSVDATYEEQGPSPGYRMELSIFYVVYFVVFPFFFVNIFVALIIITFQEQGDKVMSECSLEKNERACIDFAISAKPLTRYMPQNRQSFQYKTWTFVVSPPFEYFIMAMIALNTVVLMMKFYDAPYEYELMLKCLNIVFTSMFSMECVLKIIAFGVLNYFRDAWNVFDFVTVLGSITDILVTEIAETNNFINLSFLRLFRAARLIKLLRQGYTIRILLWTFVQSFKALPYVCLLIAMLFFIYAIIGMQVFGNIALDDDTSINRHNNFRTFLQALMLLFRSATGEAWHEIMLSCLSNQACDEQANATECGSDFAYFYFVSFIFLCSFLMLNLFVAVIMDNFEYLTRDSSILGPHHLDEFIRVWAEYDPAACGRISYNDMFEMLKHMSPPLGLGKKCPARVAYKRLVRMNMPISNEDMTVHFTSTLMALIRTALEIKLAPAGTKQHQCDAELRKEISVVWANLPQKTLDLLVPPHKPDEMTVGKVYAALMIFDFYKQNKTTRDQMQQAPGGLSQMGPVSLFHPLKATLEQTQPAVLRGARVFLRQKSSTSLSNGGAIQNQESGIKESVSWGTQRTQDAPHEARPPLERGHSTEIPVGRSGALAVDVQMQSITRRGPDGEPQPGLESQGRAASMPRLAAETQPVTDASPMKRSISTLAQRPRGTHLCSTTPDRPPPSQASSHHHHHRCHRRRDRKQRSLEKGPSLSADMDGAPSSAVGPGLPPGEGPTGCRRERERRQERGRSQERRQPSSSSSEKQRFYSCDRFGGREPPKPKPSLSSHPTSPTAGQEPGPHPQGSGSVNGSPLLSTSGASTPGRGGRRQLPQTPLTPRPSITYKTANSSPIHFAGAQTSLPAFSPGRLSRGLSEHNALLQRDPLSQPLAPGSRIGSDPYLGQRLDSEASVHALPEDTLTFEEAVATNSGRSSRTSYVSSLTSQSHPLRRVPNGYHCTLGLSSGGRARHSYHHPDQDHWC
Chain of N-type calcium channels (Q02641 whole entry partner): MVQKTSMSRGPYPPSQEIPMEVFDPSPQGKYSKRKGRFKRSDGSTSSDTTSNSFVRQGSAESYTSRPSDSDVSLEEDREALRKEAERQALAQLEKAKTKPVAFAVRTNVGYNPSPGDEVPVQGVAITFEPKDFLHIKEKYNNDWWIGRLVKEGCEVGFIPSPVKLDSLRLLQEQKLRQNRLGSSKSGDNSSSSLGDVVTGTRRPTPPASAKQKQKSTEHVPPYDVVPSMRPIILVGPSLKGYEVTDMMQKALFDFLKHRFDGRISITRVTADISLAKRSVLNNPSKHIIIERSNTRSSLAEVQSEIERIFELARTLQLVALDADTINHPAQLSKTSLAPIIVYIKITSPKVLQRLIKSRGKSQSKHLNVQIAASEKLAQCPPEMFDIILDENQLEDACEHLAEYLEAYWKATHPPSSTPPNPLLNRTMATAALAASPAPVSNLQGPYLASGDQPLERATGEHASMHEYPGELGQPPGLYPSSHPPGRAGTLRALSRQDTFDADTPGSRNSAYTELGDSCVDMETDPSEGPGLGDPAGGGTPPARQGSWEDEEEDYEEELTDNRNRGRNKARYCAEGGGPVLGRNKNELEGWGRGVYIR
Chain of N-type calcium channels (P54289 25-956 partner limits assumed): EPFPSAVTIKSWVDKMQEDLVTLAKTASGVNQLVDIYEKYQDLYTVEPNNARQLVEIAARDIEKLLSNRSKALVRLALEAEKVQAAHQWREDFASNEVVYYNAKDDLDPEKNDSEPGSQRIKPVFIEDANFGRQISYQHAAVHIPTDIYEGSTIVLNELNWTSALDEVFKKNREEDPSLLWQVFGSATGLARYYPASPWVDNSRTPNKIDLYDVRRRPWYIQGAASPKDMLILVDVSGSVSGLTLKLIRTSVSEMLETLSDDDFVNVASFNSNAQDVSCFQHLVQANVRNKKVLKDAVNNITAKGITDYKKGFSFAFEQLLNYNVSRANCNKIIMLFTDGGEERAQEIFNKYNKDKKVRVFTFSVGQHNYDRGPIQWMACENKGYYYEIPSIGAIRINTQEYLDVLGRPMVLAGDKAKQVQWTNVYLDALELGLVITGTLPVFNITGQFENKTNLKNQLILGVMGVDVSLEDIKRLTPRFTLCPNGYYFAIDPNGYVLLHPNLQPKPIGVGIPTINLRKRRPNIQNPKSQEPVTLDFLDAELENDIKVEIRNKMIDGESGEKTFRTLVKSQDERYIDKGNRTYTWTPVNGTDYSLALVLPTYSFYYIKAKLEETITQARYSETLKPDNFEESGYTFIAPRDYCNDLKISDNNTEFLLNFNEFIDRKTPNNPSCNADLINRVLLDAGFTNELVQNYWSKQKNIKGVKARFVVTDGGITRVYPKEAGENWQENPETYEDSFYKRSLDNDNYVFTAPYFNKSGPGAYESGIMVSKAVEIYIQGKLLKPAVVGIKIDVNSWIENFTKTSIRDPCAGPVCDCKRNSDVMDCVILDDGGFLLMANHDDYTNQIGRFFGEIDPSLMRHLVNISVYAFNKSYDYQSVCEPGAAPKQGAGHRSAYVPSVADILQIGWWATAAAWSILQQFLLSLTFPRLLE
Chain of N-type calcium channels (P54289 957-1103 partner limits assumed): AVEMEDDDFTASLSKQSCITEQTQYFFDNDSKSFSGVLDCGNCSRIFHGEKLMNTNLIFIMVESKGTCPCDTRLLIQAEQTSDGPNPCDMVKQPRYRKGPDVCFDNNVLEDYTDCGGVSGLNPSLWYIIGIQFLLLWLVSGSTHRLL

Row | Structure (SMILES) | effect on amphetamine-chlordiazepoxide induced increase in locomotor activity [1] | N of anticipatory resposnses [2, 3] | N of perseverative responses [2, 3] | N of anticipatory resposnses ([2]; 10 mg/Kg i.p. + vehicle) | N of perseverative responses ([2]; 10 mg/Kg i.p. + vehicle) | IC50 (N-type calcium channels) [µM] | IC50 (L-type calcium channels) [µM]
1 | CCCCOc1cccc(CCN(CC(=O)N(C)C)CC2CCOC2)c1.Cl (racemic) [Example 96, 2-[[2-(3-Butoxy-phenyl)-ethyl]-(tetrahydrofuran-3-ylmethyl)amino]-N,N-dimethyl-acetamide hydrochloride] | preventing the amphetamine-chlordiazepoxide induced increase in locomotor activity | 3.7 ± 1.6 | 15.7 ± 3.1 | 3.3 ± 0.7 | 20.9 ± 1.3 |  | 
2 | C[C@H](NCc1ccc(OCc2ccccc2F)cc1)C(N)=O [ralfinamide, (S)-(+)-2-[4-(2-fluoro-benzyloxy)-benzylamino]-propanamide, reference compound] |  |  |  |  |  | 23 | 26
